A short description of data set [1]: Phase solubility study of Frax with CDs. Format: physicochemical. Particulars: 37 °C, from phase solubility curves. As for the experimental part: Frax was excessively mixed with increasing molar concentrations (0–350.00 mM) of each CD aqueous solution. […] The samples were subjected to HPLC analysis after centrifugation (4024.8 g, 10 min). Phase solubility profiles were plotted by monitoring Frax concentration as a function of the molar concentration of each CD. Based on the phase solubility curves, we calculated the apparent stability constants (Kc, L/mol) according to Equation (1): (1) Kc=Slope/S0(1−Slope) where S0 is the water solubility of Frax at equilibrium.

The nature of data set [2]: Blood biochemical assay (hematological parameters). The format is in vivo, Kunming male mice. As to conditions: mice. As for the experimental part:
(§1) The Kunming male mice (weight of 28–30 g) were divided into 10 groups (n = 10): normal group, Frax or G2-β-CD-Frax treatment groups with a Frax dose of 5, 10, and 20 mg/kg, respectively, G2-β-CD solution treatment (equivalent to 20 mg/kg of G2-β-CD-Frax) group. Drug treatment continued every day for 7 weeks. One day after the last administration, blood and major tissues (heart, liver, spleen, lung, and kidney) were obtained from the blank group and drug-treated groups (20 mg/kg) for histological examination. The whole blood was directly analyzed using an automatic blood cell analyzer to obtain hematological parameters. The collected tissues were subjected to histological examination.

A further data set concerns Caco-2 cells. Briefly: Cytotoxicity in Caco-2 cells (MTT assay). Format: cell-based. Particulars: 4 h. As for the experimental part:
(§2) Cytotoxicity effects and cellular uptake ability of Frax, CDs, and CDs-Frax complexes were examined using Caco-2 cells. […] Each CD solution was also used to determine whether the cell toxicity was caused by Frax or CDs. For cellular uptake studies, Caco-2 cells were treated with Frax and CDs-Frax (100 μg/mL) for 0.5, 1, and 2 h, respectively. For P-gp inhibition evaluation, the cells were pretreated with verapamil at a concentration of 100 μg/mL and further treated with each drug or formulation. Thereafter, the cells were washed and replenished with fresh PBS (300 μL). The cell lysate was prepared by three cycles of freeze-thaw. Protein concentration in the samples was quantified by the BCA kit while the Frax concentration was determined by HPLC.

A short description of data set [3]: Cytotoxicity in Caco-2 cells (MTT assay). The format is cell-based. As to conditions: human, Caco-2 cells; Caco-2, 300 μg/mL, 4 h; read-out: cell viability (cells remained viable). As for the experimental part: as §2
(Formazan colour is commonly taken as a measure of viable cells.)

Data set [4] in a line: Safety evaluation for seven weeks, histological examination (H&E). Format: in vivo, Kunming male mice. As to conditions: mice, oral daily for 7 weeks, 20 mg/kg or equivalent G2-β-CD. As for the experimental part: as §1
Where [5] appears, read: 7 weeks, colchicine group (0.2 mg/kg), in % (unit assumed).
[6] abbreviates: 7 weeks, colchicine group (0.2 mg/kg), in fL (unit assumed).

Consider `OC[C@H]1O[C@@H]2O[C@H]3[C@H](O)[C@@H](O)[C@@H](O[C@H]4[C@H](O)[C@@H](O)[C@@H](O[C@H]5[C@H](O)[C@@H](O)[C@@H](O[C@H]6[C@H](O)[C@@H](O)[C@@H](O[C@H]7[C@H](O)[C@@H](O)[C@@H](O[C@H]8[C@H](O)[C@@H](O)[C@@H](O[C@H]1[C@H](O)[C@H]2O)O[C@@H]8CO)O[C@@H]7CO)O[C@@H]6CO)O[C@@H]5CO)O[C@@H]4CO)O[C@@H]3CO` [β-CD, β-cyclodextrin], for which, in data set [1], the “apparent stability constant (Kc) for Frax complexation” value (from here on “apparent stability constant (Kc)”) worked out at 109.34 M⁻¹.
Turning to `COc1cc2c(c(OC)c1OC)-c1ccc(OC)c(=O)cc1[C@@H](NC(C)=O)CC2` [Colchicine, colchicine, reference compound], in data set [2] (7 weeks), the “MCHC (mean corpuscular hemoglobin concentration)” value was determined as 341.86 ± 9.91 and the “PDW (platelet distribution width)” value is reported as 14.99 ± 0.22. Besides, the “PLT (platelet)” value in data set [2] (7 weeks, colchicine group (0.2 mg/kg), in 10^9/L (unit assumed)) came out at 1363.86 ± 333.63. In addition, in data set [2] (setting [5]), the “HCT (haematocrit)” value worked out at 39.06 ± 2.62 and the “RDW-CV (red cell volume distribution width)” value was 16.24 ± 1.60. In addition, in data set [2] (setting [6]), the “MCV (mean cell volume)” value was found to be 43.09 ± 2.97, the “MPV (meanplateletvolume)” value is 6.80 ± 0.51 and the RDW-SD came to 29.86 ± 4.02. Further, the “HGB (hemoglobin)” value in data set [2] (7 weeks, colchicine group (0.2 mg/kg), in g/L (unit assumed)) amounted to 133.57 ± 9.50. The “MCH (mean corpuscular hemoglobin)” value in data set [2] (7 weeks, colchicine group (0.2 mg/kg), in pg (unit assumed)) is reported as 14.71 ± 0.70. Moreover, the “WBC (white blood cell)” value in data set [2] (7 weeks, in 10^9/L (unit assumed)) is 9.61 ± 4.41. In data set [2] (7 weeks, in 10^12/L (unit assumed)), the “RBC (red blood cell)” value is given as 9.13 ± 1.01.
In the case of “Sulfobutyl ether-β-cyclodextrin [SBE-β-CD]”, the cell viability result in the data set on Caco-2 cells (Caco-2, 200 and 300 μg/mL) is “lower than 80%”. Also, the “apparent stability constant (Kc)” value in data set [1] came to 168.20 M⁻¹.
Turning to `CC(O)COC[C@H]1O[C@@H]2O[C@H]3[C@H](O)[C@@H](O)[C@@H](O[C@H]4[C@H](O)[C@@H](O)[C@@H](O[C@H]5[C@H](O)[C@@H](O)[C@@H](O[C@H]6[C@H](O)[C@@H](O)[C@@H](O[C@H]7[C@H](O)[C@@H](O)[C@@H](O[C@H]8[C@H](O)[C@@H](O)[C@@H](O[C@H]1[C@H](O)[C@H]2O)O[C@@H]8COCC(C)O)O[C@@H]7COCC(C)O)O[C@@H]6COCC(C)O)O[C@@H]5COCC(C)O)O[C@@H]4COCC(C)O)O[C@@H]3COCC(C)O` (stereo partly drawn) [HP-β-CD, 2-hydroxypropyl-β-cyclodextrin], the viability at 4 h, 300 μg/mL in data set [3] is > 85%. For the same molecule, the “apparent stability constant (Kc)” value in data set [1] is 807.32 M⁻¹.
In the case of `OC[C@H]1O[C@H](O[C@H]2[C@H](O)[C@@H](O)[C@@H](OC[C@H]3O[C@@H]4O[C@H]5[C@H](O)[C@@H](O)[C@@H](O[C@H]6[C@H](O)[C@@H](O)[C@@H](O[C@H]7[C@H](O)[C@@H](O)C(O[C@H]8[C@H](O)[C@@H](O)[C@@H](O[C@H]9[C@H](O)[C@@H](O)[C@@H](O[C@H]%10[C@H](O)[C@@H](O)[C@@H](O[C@H]3[C@H](O)[C@H]4O)O[C@@H]%10CO)O[C@@H]9CO)O[C@@H]8CO)O[C@@H]7CO)O[C@@H]6CO)O[C@@H]5CO)O[C@@H]2CO)[C@H](O)[C@@H](O)[C@@H]1O` [G2-β-CD, 6-O-α-D-maltosyl-β-cyclodextrin], the “cell viability (cells remained viable)” value with Caco-2 cells (Caco-2, 300 μg/mL) is “over 85%”. Besides, the “H&E staining of major tissues” value in data set [4] was “no inflammation and no cellular damage”. Besides, the “changes in blood biochemical assay (in words)” value in data set [2] (oral daily for 7 weeks) is given as “no obvious changes”. Further, the “apparent stability constant (Kc)” value in data set [1] is 997.68 M⁻¹.

The viability is the share of living cells, or the viability signal relative to a control.
